Assay results as given in ChEMBL document CHEMBL1150344, “Interaction of antagonists with calmodulin: insights from molecular dynamics simulations” (J Med Chem, 2008).

Target: Calmodulin-1 (Homo sapiens, UniProt P0DP23)
Assay: Binding affinity to calmodulin

Kd: 18 nM
Compound: CCCCOc1ccc([C@@H](C)NCCCNCCC(c2ccccc2)c2ccccc2)cc1OCCCC
